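Dose response: 5 concentrations. Exposure: 48 h. Format: 96-well plates. Endpoint: linear interpolation; highest concentration if not reached. At the GI50, growth is halved. TGI: total growth inhibition.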
Experiments:
Assay in all cases: NCI-60 cell line screen, 48 h
[1] = tested on: 786-0 renal
[2] = tested on: A549 NSCLC
[3] = tested on: ACHN renal
[4] = tested on: BT-549 breast
[5] = tested on: CAKI-1 renal
[6] = tested on: CCRF-CEM leukemia
[7] = tested on: COLO 205 colon
[8] = tested on: DU-145 prostate
[9] = tested on: EKVX NSCLC
[10] = tested on: HCC-2998 colon
[11] = tested on: HCT-116 colon
[12] = tested on: HCT-15 colon
[13] = tested on: HL-60(TB) leukemia
[14] = tested on: HOP-62 NSCLC
[15] = tested on: HOP-92 NSCLC
[16] = tested on: HS 578T breast
[17] = tested on: HT29 colon
[18] = tested on: IGROV1 ovarian
[19] = tested on: KM12 colon
[20] = tested on: LOX IMVI melanoma
[21] = tested on: M14 melanoma
[22] = tested on: MALME-3M melanoma
[23] = tested on: MCF7 breast
[24] = tested on: MDA-MB-231 breast
[25] = tested on: MDA-MB-435
[26] = tested on: MOLT-4 leukemia
[27] = tested on: NCI-H226 lung
[28] = tested on: NCI-H23 lung
[29] = tested on: NCI-H460 lung
[30] = tested on: NCI-H522 lung
[31] = tested on: NCI/ADR-RES ovarian
[32] = tested on: OVCAR-3 ovarian
[33] = tested on: OVCAR-4 ovarian
[34] = tested on: OVCAR-5 ovarian
[35] = tested on: OVCAR-8 ovarian
[36] = tested on: PC-3 prostate
[37] = tested on: RPMI-8226 leukemia
[38] = tested on: RXF 393 renal
[39] = tested on: SF-268 CNS
[40] = tested on: SF-295 CNS
[41] = tested on: SF-539 CNS
[42] = tested on: SK-MEL-2 melanoma
[43] = tested on: SK-MEL-28 melanoma
[44] = tested on: SK-MEL-5 melanoma
[45] = tested on: SK-OV-3 ovarian
[46] = tested on: SN12C renal
[47] = tested on: SNB-19 CNS
[48] = tested on: SNB-75 CNS
[49] = tested on: SR leukemia
[50] = tested on: SW-620 colon
[51] = tested on: T-47D breast
[52] = tested on: TK-10 renal
[53] = tested on: U251 CNS
[54] = tested on: UACC-257 melanoma
[55] = tested on: UACC-62 melanoma
[56] = tested on: UO-31 renal

**Q.** For `CCCCCCC/C(=N\N=C(N)N)c1ccc(O)cc1`, which GI50 [1] is on record?
**A.** 2.16 µM

**Q.** What about the TGI [1] of the same compound?
**A.** 5.31 µM

**Q.** What about the GI50 [2] of the same compound?
**A.** 2.88 µM

**Q.** And the TGI [2]?
**A.** 17.2 µM

**Q.** What about the GI50 [3] of the same compound?
**A.** 2.25 µM

**Q.** What about the TGI [3] of the same compound?
**A.** 5.13 µM

**Q.** What about the GI50 [4] of the same compound?
**A.** 2.41 µM

**Q.** What about the TGI [4] of the same compound?
**A.** 8.65 µM

**Q.** What about the GI50 [5] of the same compound?
**A.** 2.8 µM

**Q.** And the TGI [5]?
**A.** 11.8 µM

**Q.** And the GI50 [6]?
**A.** 1.96 µM

**Q.** What about the TGI [6] of the same compound?
**A.** 5.77 µM

**Q.** What about the GI50 [7] of the same compound?
**A.** 1.74 µM

**Q.** What about the TGI [7] of the same compound?
**A.** 3.16 µM

**Q.** What about the GI50 [8] of the same compound?
**A.** 3.15 µM

**Q.** And the TGI [8]?
**A.** 11 µM

**Q.** And the GI50 [9]?
**A.** 2.71 µM

**Q.** What about the TGI [9] of the same compound?
**A.** 14 µM

**Q.** And the GI50 [10]?
**A.** 1.62 µM

**Q.** What about the TGI [10] of the same compound?
**A.** 3 µM

**Q.** What about the GI50 [11] of the same compound?
**A.** 1.67 µM

**Q.** And the TGI [11]?
**A.** 3.41 µM

**Q.** And the GI50 [12]?
**A.** 3.48 µM

**Q.** What about the TGI [12] of the same compound?
**A.** 12.9 µM

**Q.** What about the GI50 [13] of the same compound?
**A.** 1.75 µM

**Q.** What about the TGI [13] of the same compound?
**A.** 3.65 µM

**Q.** What about the GI50 [14] of the same compound?
**A.** 1.81 µM

**Q.** What about the TGI [14] of the same compound?
**A.** 3.81 µM

**Q.** And the GI50 [15]?
**A.** 0.692 µM

**Q.** And the TGI [15]?
**A.** 3.19 µM

**Q.** And the GI50 [16]?
**A.** 3.14 µM

**Q.** What about the TGI [16] of the same compound?
**A.** 24.7 µM

**Q.** What about the GI50 [17] of the same compound?
**A.** 2.35 µM

**Q.** And the TGI [17]?
**A.** 6.25 µM

**Q.** What about the GI50 [18] of the same compound?
**A.** 2.28 µM

**Q.** And the TGI [18]?
**A.** 10.7 µM

**Q.** What about the GI50 [19] of the same compound?
**A.** 1.73 µM

**Q.** And the TGI [19]?
**A.** 3.52 µM

**Q.** And the GI50 [20]?
**A.** 1.62 µM

**Q.** What about the TGI [20] of the same compound?
**A.** 2.97 µM

**Q.** And the GI50 [21]?
**A.** 1.71 µM

**Q.** And the TGI [21]?
**A.** 3.18 µM

**Q.** What about the GI50 [22] of the same compound?
**A.** 1.77 µM

**Q.** And the TGI [22]?
**A.** 3.52 µM

**Q.** What about the GI50 [23] of the same compound?
**A.** 1.71 µM

**Q.** What about the TGI [23] of the same compound?
**A.** 4.43 µM

**Q.** What about the GI50 [24] of the same compound?
**A.** 1.67 µM

**Q.** What about the TGI [24] of the same compound?
**A.** 3.54 µM

**Q.** What about the GI50 [25] of the same compound?
**A.** 1.71 µM

**Q.** And the TGI [25]?
**A.** 3.44 µM

**Q.** And the GI50 [26]?
**A.** 1.67 µM

**Q.** And the TGI [26]?
**A.** 4.76 µM

**Q.** What about the GI50 [27] of the same compound?
**A.** 2.2 µM

**Q.** And the TGI [27]?
**A.** 6.63 µM

**Q.** What about the GI50 [28] of the same compound?
**A.** 2.6 µM

**Q.** And the TGI [28]?
**A.** 10.9 µM

**Q.** What about the GI50 [29] of the same compound?
**A.** 1.82 µM

**Q.** And the TGI [29]?
**A.** 3.68 µM

**Q.** What about the GI50 [30] of the same compound?
**A.** 1.62 µM

**Q.** What about the TGI [30] of the same compound?
**A.** 3.48 µM

**Q.** What about the GI50 [31] of the same compound?
**A.** 10 µM

**Q.** And the TGI [31]?
**A.** 23.2 µM

**Q.** What about the GI50 [32] of the same compound?
**A.** 2.23 µM

**Q.** What about the TGI [32] of the same compound?
**A.** 7.84 µM

**Q.** What about the GI50 [33] of the same compound?
**A.** 1.65 µM

**Q.** And the TGI [33]?
**A.** 12.3 µM

**Q.** What about the GI50 [34] of the same compound?
**A.** 3.83 µM

**Q.** What about the TGI [34] of the same compound?
**A.** 15.3 µM

**Q.** What about the GI50 [35] of the same compound?
**A.** 2.12 µM

**Q.** And the TGI [35]?
**A.** 5.26 µM

**Q.** And the GI50 [36]?
**A.** 2.17 µM

**Q.** And the TGI [36]?
**A.** 8.92 µM

**Q.** What about the GI50 [37] of the same compound?
**A.** 1.71 µM

**Q.** What about the TGI [37] of the same compound?
**A.** 4.3 µM

**Q.** What about the GI50 [38] of the same compound?
**A.** 1.94 µM

**Q.** What about the TGI [38] of the same compound?
**A.** 5.16 µM

**Q.** What about the GI50 [39] of the same compound?
**A.** 1.77 µM

**Q.** And the TGI [39]?
**A.** 5.31 µM

**Q.** And the GI50 [40]?
**A.** 1.77 µM

**Q.** And the TGI [40]?
**A.** 4.46 µM

**Q.** And the GI50 [41]?
**A.** 1.91 µM

**Q.** What about the TGI [41] of the same compound?
**A.** 4.4 µM

**Q.** And the GI50 [42]?
**A.** 1.96 µM

**Q.** And the TGI [42]?
**A.** 3.85 µM

**Q.** And the GI50 [43]?
**A.** 1.73 µM

**Q.** And the TGI [43]?
**A.** 3.28 µM

**Q.** What about the GI50 [44] of the same compound?
**A.** 1.5 µM

**Q.** And the TGI [44]?
**A.** 2.82 µM

**Q.** What about the GI50 [45] of the same compound?
**A.** 3.04 µM

**Q.** What about the TGI [45] of the same compound?
**A.** 11.2 µM

**Q.** What about the GI50 [46] of the same compound?
**A.** 2.76 µM

**Q.** What about the TGI [46] of the same compound?
**A.** 11.8 µM

**Q.** And the GI50 [47]?
**A.** 2.13 µM

**Q.** What about the TGI [47] of the same compound?
**A.** 10.6 µM

**Q.** What about the GI50 [48] of the same compound?
**A.** 1.58 µM

**Q.** And the TGI [48]?
**A.** 5.41 µM

**Q.** And the GI50 [49]?
**A.** 1.67 µM

**Q.** And the TGI [49]?
**A.** 3.96 µM

**Q.** And the GI50 [50]?
**A.** 1.65 µM

**Q.** And the TGI [50]?
**A.** 3.35 µM

**Q.** What about the GI50 [51] of the same compound?
**A.** 1.87 µM

**Q.** And the TGI [51]?
**A.** 4.89 µM

**Q.** And the GI50 [52]?
**A.** 5.53 µM

**Q.** And the TGI [52]?
**A.** 18 µM

**Q.** And the GI50 [53]?
**A.** 1.54 µM

**Q.** What about the TGI [53] of the same compound?
**A.** 2.87 µM

**Q.** And the GI50 [54]?
**A.** 1.76 µM

**Q.** What about the TGI [54] of the same compound?
**A.** 3.81 µM

**Q.** And the GI50 [55]?
**A.** 1.55 µM

**Q.** What about the TGI [55] of the same compound?
**A.** 3.26 µM

**Q.** And the GI50 [56]?
**A.** 2.38 µM

**Q.** And the TGI [56]?
**A.** 12.1 µM
